Measured values published in US8574831B2, “Mutational profiles in HIV-1 reverse transcriptase correlated with phenotypic drug resistance” (Virco N.V., priority 2000, dated 2013).

Tested on: HIV with mutations in the HIV protease sequence
Experiment: Phenotypic fold resistance to protease inhibitors, protease mutations 84A/84L/84C/54M/54L/54V in a background (Examples 8-13)
Type: cell-based, HIV-1
Procedure: As is the case with the genotyping assays, the recombinant virus assay starts with the amplification of viral target sequences by means of PCR. The amplicons are incorporated into a proviral laboratory clone with sequences homologous to those present in the amplicon deleted. This generates a stock of chimeric viruses. The viruses are tested for their ability to grow in the presence of different concentrations of drugs. Results are obtained by calculating IC50 values for each inhibitor and by reporting the results as IC50 values, expressed in μM concentrations, or by computing the ratio of the IC50 values found for the chimeric virus to the IC50 values found for a wild type susceptible laboratory virus tested in parallel. In the latter case, resistance is expressed as “fold-resistance” compared to a wild-type susceptible HIV-1 strain. In order to meet the need for high-volume testing and a short turn-around time for an individual test, the latest generation of phenotyping assays has undergone further modifications. The use of reporter gene systems for susceptibility testing allows the implementation of laboratory automation and standardization. See Pauwels, et al., J. Virol. Methods 20, 309-321 (1998); Paulous, S., et al., International Workshop on HIV Drug Resistance, Treatment Strategies and Eradication, St. Petersburg, Fla., USA. Abstr. 46 (1997); and Deeks, S. G., et al., 2nd International Workshop on HIV Drug Resistance and Treatment Strategies, Lake Maggiore, Italy. Abstr. 53 (1998).
The ANTIVIROGRAM® assay (Virco) (WO 97/27480) is based on homologous recombination of patient derived HIV-1 gag/PR/RT sequences into a proviral HIV-1 clone correspondingly deleted for the gag/PR/RT sequences. See Pauwels, et al., J. Virol. Methods 20, 309-321 (1998). A similar assay (Phenosense ViroLogic) is based on enzymatic ligation of patient-derived PR/RT sequences into a correspondingly deleted proviral vector carrying an indicator gene, luciferase, inserted in the deleted HIV-1 envelope gene. See Deeks, S. G., et al., 2nd International Workshop on HIV Drug Resistance and Treatment Strategies, Lake Maggiore, Italy. Abstr. 53 (1998). Hertogs et al. Antimicrob. Agents Chemother. 44(3) 568-573 (2000) the disclosures of which are herein incorporated by reference.
The methods of monitoring HIV-1 drug resistance, may also be used in combination with phenotypic drug resistance testing of viral isolates. For example, in one embodiment, a phenotypic test is utilized that is based upon the construction of chimeric HIV-1 strains composed of the protease (PR) and reverse transcriptase (RT) gene sequences which are isolated and amplified from the patient viral RNA. These strains may subsequently be recombined inside CD4+ T cells with a standard laboratory isogenic (HXB2) HIV-1 DNA construct from which the PR/RT gene sequences were deleted. The recombinant strains may then be grown in the presence of the above-mentioned antiviral drugs and the susceptibility of the viral isolates may be expressed as fold-change value of the IC50 of the drug on the patient isolates over the IC50 of the drug on a wild-type laboratory reference strain.

With `Cc1c(O)cccc1C(=O)N[C@@H](CSc1ccccc1)[C@H](O)CN1C[C@H]2CCCC[C@H]2C[C@H]1C(=O)NC(C)(C)C` [Nelfinavir, nelfinavir] the “Fold change in IC50” value (Table 12, V055199, genotype 10I + 33F + 54M + 90M) was 11.7 fold, the “Fold change in IC50” value (Table 13, V19263, genotype 77I) was 0.9 fold and the “Fold change in IC50” value (Table 13, V20160, genotype WT) was 0.7 fold. For the same molecule, the “Fold change in IC50” value (Table 13, V021667, genotype 10I) was 1.0 fold, the “Fold change in IC50” value (Table 13, V030496, genotype 10I + 77I) was 0.7 fold and the “Fold change in IC50” value (Table 13, V048868, genotype 10I + 54L + 71V + 77I + 90M) was 15.6 fold. The “Fold change in IC50” value (Table 13, V048874, genotype 10I + 33F + 54L + 71V + 77I + 90M) was 14.5 fold, the “Fold change in IC50” value (Table 13, V048875, genotype 10I + 33F + 54L + 71V + 77I + 90M) was 12.5 fold and the “Fold change in IC50” value (Table 13, V048877, genotype 10I + 33F + 77I + 90M) was 9.4 fold. The “Fold change in IC50” value (Table 13, V048880, genotype 10I + 33F + 77I + 90M) was 4.9 fold, the “Fold change in IC50” value (Table 13, V052940, genotype 71V) was 0.6 fold and the “Fold change in IC50” value (Table 13, V052942, genotype 10I + 71V) was 0.9 fold. For the same molecule, the “Fold change in IC50” value (Table 13, V052943, genotype 10I + 90M) was 2.2 fold, the “Fold change in IC50” value (Table 13, V052944, genotype 10I + 90M) was 1.4 fold and the “Fold change in IC50” value (Table 13, V052945, genotype 77I + 90M) was 3.0 fold. The “Fold change in IC50” value (Table 13, V052946, genotype 71V + 90M) was 3.0 fold, the “Fold change in IC50” value (Table 13, V052947, genotype 10I + 77I + 90M) was 8.2 fold and the “Fold change in IC50” value (Table 13, V052948, genotype 10I + 71V + 90M) was 9.0 fold. The “Fold change in IC50” value (Table 13, V052949, genotype 10I + 71V + 77I + 90M) was 8.6 fold, the “Fold change in IC50” value (Table 13, V052950, genotype 33F) was 1.0 fold and the “Fold change in IC50” value (Table 13, V052951, genotype 33F + 77I) was 5.2 fold. For the same molecule, the “Fold change in IC50” value (Table 13, V052953, genotype 10I + 33F + 77I) was 0.9 fold, the “Fold change in IC50” value (Table 13, V052954, genotype 33F + 77I + 90M) was 5.9 fold and the “Fold change in IC50” value (Table 13, V052955, genotype 33F + 71V + 90M) was 36.6 fold. The “Fold change in IC50” value (Table 13, V052968, genotype 10L/I + 33F/L + 54L + 77I) was 3.5 fold, the “Fold change in IC50” value (Table 13, V052969, genotype 10I + 33F + 54L + 90M) was 3.4 fold and the “Fold change in IC50” value (Table 13, V052970, genotype 54L) was 1.6 fold. The “Fold change in IC50” value (Table 13, V052971, genotype 10I + 54L) was 1.0 fold, the “Fold change in IC50” value (Table 13, V052972, genotype 54L + 77I) was 3.0 fold and the “Fold change in IC50” value (Table 13, V052973, genotype 10I + 54L + 77I) was 2.8 fold. The “Fold change in IC50” value (Table 13, V052974, genotype 10I + 54L + 90M) was 2.6 fold, the “Fold change in IC50” value (Table 13, V052975, genotype 10I + 54L + 71V + 90M) was 41.3 fold and the “Fold change in IC50” value (Table 13, V052976, genotype 10I + 54L + 71V + 77I + 90M) was 8.9 fold. For the same molecule, the “Fold change in IC50” value (Table 13, V053832, genotype 10I + 33F) was 1.6 fold, the “Fold change in IC50” value (Table 13, V053854, genotype 54L + 71V) was 5.9 fold and the “Fold change in IC50” value (Virco ID 214846, genotype 10I + 33F + 54V + 71V + 77I + 90M, vs mean IC50 of wild type laboratory HIV strain) was 43.5 fold. For the same molecule, the “Fold change in IC50” value (Virco ID V021667, genotype 10I, vs mean IC50 of wild type laboratory HIV strain) was 1.0 fold, the “Fold change in IC50” value (Virco ID V030496, genotype 10I + 77I, vs mean IC50 of wild type laboratory HIV strain) was 0.7 fold and the “Fold change in IC50” value (Virco ID V048876, genotype 33F + 54V + 77I + 90M, vs mean IC50 of wild type laboratory HIV strain) was 1.6 fold. For the same molecule, the “Fold change in IC50” value (Virco ID V048877, genotype 10I + 33F + 77I + 90M, vs mean IC50 of wild type laboratory HIV strain) was 9.4 fold, the “Fold change in IC50” value (Virco ID V048880, genotype 10I + 33F + 77I + 90M, vs mean IC50 of wild type laboratory HIV strain) was 4.9 fold and the “Fold change in IC50” value (Virco ID V052940, genotype 71V, vs mean IC50 of wild type laboratory HIV strain) was 0.6 fold. The “Fold change in IC50” value (Virco ID V052942, genotype 10I + 71V, vs mean IC50 of wild type laboratory HIV strain) was 0.9 fold, the “Fold change in IC50” value (Virco ID V052943, genotype 10I + 90M, vs mean IC50 of wild type laboratory HIV strain) was 2.2 fold and the “Fold change in IC50” value (Virco ID V052944, genotype 10I + 90M, vs mean IC50 of wild type laboratory HIV strain) was 1.4 fold. The “Fold change in IC50” value (Virco ID V052946, genotype 71V + 90M, vs mean IC50 of wild type laboratory HIV strain) was 3.0 fold, the “Fold change in IC50” value (Virco ID V052947, genotype 10I + 77I + 90M, vs mean IC50 of wild type laboratory HIV strain) was 8.2 fold and the “Fold change in IC50” value (Virco ID V052948, genotype 10I + 71V + 90M, vs mean IC50 of wild type laboratory HIV strain) was 9.0 fold. The “Fold change in IC50” value (Virco ID V052949, genotype 10I + 71V + 77I + 90M, vs mean IC50 of wild type laboratory HIV strain) was 8.6 fold, the “Fold change in IC50” value (Virco ID V052950, genotype 33F, vs mean IC50 of wild type laboratory HIV strain) was 1.0 fold and the “Fold change in IC50” value (Virco ID V052951, genotype 33F + 77I, vs mean IC50 of wild type laboratory HIV strain) was 5.2 fold. The “Fold change in IC50” value (Virco ID V052953, genotype 10I + 33F + 77I, vs mean IC50 of wild type laboratory HIV strain) was 0.9 fold, the “Fold change in IC50” value (Virco ID V052954, genotype 33F + 77I + 90M, vs mean IC50 of wild type laboratory HIV strain) was 5.9 fold and the “Fold change in IC50” value (Virco ID V052955, genotype 33F + 71V + 90M, vs mean IC50 of wild type laboratory HIV strain) was 36.6 fold. The “Fold change in IC50” value (Virco ID V052957, genotype 10I + 33F + 54V + 90M, vs mean IC50 of wild type laboratory HIV strain) was 6.9 fold, the “Fold change in IC50” value (Virco ID V052958, genotype 10I + 33F + 54V + 77I + 90M, vs mean IC50 of wild type laboratory HIV strain) was 4.8 fold and the “Fold change in IC50” value (Virco ID V052959, genotype 10I + 33F + 54V + 77I + 90M, vs mean IC50 of wild type laboratory HIV strain) was 7.5 fold. For the same molecule, the “Fold change in IC50” value (Virco ID V052960, genotype 10I + 33F + 54V + 71V + 90M, vs mean IC50 of wild type laboratory HIV strain) was 40.7 fold, the “Fold change in IC50” value (Virco ID V052961, genotype 54V, vs mean IC50 of wild type laboratory HIV strain) was 1.0 fold and the “Fold change in IC50” value (Virco ID V052962, genotype 10I + 54V, vs mean IC50 of wild type laboratory HIV strain) was 0.6 fold. For the same molecule, the “Fold change in IC50” value (Virco ID V052963, genotype 54V + 77I + 90M, vs mean IC50 of wild type laboratory HIV strain) was 3.2 fold, the “Fold change in IC50” value (Virco ID V052964, genotype 54V + 71V + 90M, vs mean IC50 of wild type laboratory HIV strain) was 3.3 fold and the “Fold change in IC50” value (Virco ID V052965, genotype 10I + 54V + 77I + 90M, vs mean IC50 of wild type laboratory HIV strain) was 15.1 fold. The “Fold change in IC50” value (Virco ID V052966, genotype 10I + 54V + 71V + 90M, vs mean IC50 of wild type laboratory HIV strain) was 55.4 fold, the “Fold change in IC50” value (Virco ID V052967, genotype 10I + 54V + 71V + 77I + 90M, vs mean IC50 of wild type laboratory HIV strain) was 0.8 fold and the “Fold change in IC50” value (Virco ID V053358, genotype 33F + 54V + 77I + 90M, vs mean IC50 of wild type laboratory HIV strain) was 2.1 fold. For the same molecule, the “Fold change in IC50” value (Virco ID V053831, genotype 33F + 54V, vs mean IC50 of wild type laboratory HIV strain) was 5.9 fold and the “Fold change in IC50” value (Virco ID V053832, genotype 10I + 33F, vs mean IC50 of wild type laboratory HIV strain) was 1.6 fold.
